Results as given in patent US20260274814A1, “THIENYL COMPOUNDS FOR THE TREATMENT OF A CENTRAL NERVOUS SYSTEM DISEASE OR DISORDER” (Coreterra Therapeutics, Inc., priority 2023, published 2026).
Counter-ions that a name gives are not always drawn.

System: mice
Assay: Neuropharmacological Assay (SmartCube): automated behavioral signature of compound-treated mice compared with a database of reference drug classes
Assay type: in vivo
Settings: for minimal effective dose: Mus musculus, ip, minimal effective dose: dose having 45% or more total activity in SmartCube, i.p., if only one dose tested, that dose is shown, read-out: MED; for AD / AG / AN / AP / AX / CE / HL / MS / PS / SH / UK: SmartCube class probability, 3.0 mg/kg i.p., 15 min before test
How it was run: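 Mice dosed i.p. 15 min before SmartCube testing, with compound in N-methyl-2-pyrrolidone/polyethylene glycol/propylene glycol. Video-captured behaviour is compared with a reference-drug signature database to give per-class probabilities, reported at 3.0 mg/kg. MED, from doses usually 0.3–10 mg/kg, is the lowest dose giving ≥45% total activity.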

SMILES | minimal effective dose | AD | AG | AN | AP | AX | CE | HL | MS | PS | SH | UK
CNC1CCc2c(C(F)(F)F)csc2C1 (centres unmarked) [Compound 180, N-methyl-3-(trifluoromethyl)-4,5,6,7-tetrahydrobenzothiophen-6-amine hydrochloride] | 3 mg/kg | ND (^ <4%) | ND (^ <4%) | ND (^ <4%) | +++ (≥49%) | ND (^ <4%) | ND (^ <4%) | ND (^ <4%) | ND (^ <4%) | ND (^ <4%) | ND (^ <4%) | ND (^ <4%)
CNC1COc2cc(C)sc2C1 (centres unmarked) [Compound 181, N, 2-dimethyl-6,7-dihydro-5H-thieno[3,2-b]pyran-6-amine hydrochloride] | > 3 mg/kg | ND (^ <4%) | ND (^ <4%) | + (≥4%) | + (≥4%) | ND (^ <4%) | ND (^ <4%) | ND (^ <4%) | ND (^ <4%) | ND (^ <4%) | ND (^ <4%) | ND (^ <4%)
CNC1(C)CCc2scc(F)c2C1 (centres unmarked) [Compound 182, 3-fluoro-N, 5-dimethyl-6,7-dihydro-4H-benzothiophen-5-amine hydrochloride] | 3 mg/kg | ND (^ <4%) | ND (^ <4%) | ND (^ <4%) | ND (^ <4%) | ND (^ <4%) | ND (^ <4%) | ND (^ <4%) | ND (^ <4%) | + (≥4%) | + (≥4%) | ++ (≥24%)
Cc1cc2c(s1)CCC(N)C2 (centres unmarked) [Compound 185, 2-methyl-4,5,6,7-tetrahydrobenzothiophen-5-amine hydrochloride] |  | ND (^ <4%) | ND (^ <4%) | ND (^ <4%) | ND (^ <4%) | ND (^ <4%) | ND (^ <4%) | ND (^ <4%) | ND (^ <4%) | ND (^ <4%) | ND (^ <4%) | ++ (≥24%)
NC1CCc2scc(C(F)(F)F)c2C1 (centres unmarked) [Compound 186, 3-(trifluoromethyl)-4,5,6,7-tetrahydrobenzothiophen-5-amine hydrochloride] | > 3 mg/kg | ND (^ <4%) | ND (^ <4%) | ND (^ <4%) | ND (^ <4%) | ND (^ <4%) | ND (^ <4%) | ND (^ <4%) | ND (^ <4%) | ND (^ <4%) | ND (^ <4%) | + (≥4%)
NC1CCc2scc(Cl)c2C1 (centres unmarked) [Compound 187, 3-chloro-4,5,6,7-tetrahydrobenzothiophen-5-amine hydrochloride] | 3 mg/kg | ND (^ <4%) | ND (^ <4%) | ND (^ <4%) | ++ (≥24%) | ND (^ <4%) | ND (^ <4%) | ND (^ <4%) | ND (^ <4%) | ND (^ <4%) | ND (^ <4%) | ++ (≥24%)
Cc1cc2c(s1)CC(N)CO2 (centres unmarked) [Compound 188, 2-methyl-6,7-dihydro-5H-thieno[3,2-b]pyran-6-amine hydrochloride] | > 3 mg/kg | ND (^ <4%) | ND (^ <4%) | ND (^ <4%) | ND (^ <4%) | + (≥4%) | ND (^ <4%) | ND (^ <4%) | ND (^ <4%) | ND (^ <4%) | ND (^ <4%) | ++ (≥24%)
CN(C)C1CCc2sc(Cl)cc2C1 (centres unmarked) [Compound 189, 2-chloro-N, N-dimethyl-4,5,6,7-tetrahydrobenzothiophen-5-amine hydrochloride] | > 3 mg/kg | ND (^ <4%) | ND (^ <4%) | ND (^ <4%) | ND (^ <4%) | ND (^ <4%) | ND (^ <4%) | ND (^ <4%) | ND (^ <4%) | ND (^ <4%) | ND (^ <4%) | ++ (≥24%)
CNC1(C)CCc2scc(C(F)(F)F)c2C1 (centres unmarked) [Compound 190, N, 5-dimethyl-3-(trifluoromethyl)-6,7-dihydro-4H-benzothiophen-5-amine hydrochloride] | > 3 mg/kg | ND (^ <4%) | ND (^ <4%) | ND (^ <4%) | ND (^ <4%) | ND (^ <4%) | ND (^ <4%) | ND (^ <4%) | ND (^ <4%) | ND (^ <4%) | ND (^ <4%) | + (≥4%)
NC1CCc2csc(C3CC3)c2C1 (centres unmarked) [Compound 193, 3-cyclopropyl-4,5,6,7-tetrahydro-2-benzothiophen-5-amine hydrochloride] | > 3 mg/kg | ND (^ <4%) | ND (^ <4%) | + (≥4%) | ND (^ <4%) | ND (^ <4%) | ND (^ <4%) | ND (^ <4%) | ND (^ <4%) | ND (^ <4%) | ND (^ <4%) | ND (^ <4%)
CNC1CCc2sc(C)c(F)c2C1 (centres unmarked) [Compound 196, 3-fluoro-N, 2-dimethyl-4,5,6,7-tetrahydrobenzothiophen-5-amine hydrochloride] | 3 mg/kg | ND (^ <4%) | ND (^ <4%) | ND (^ <4%) | ND (^ <4%) | ND (^ <4%) | ND (^ <4%) | ND (^ <4%) | ND (^ <4%) | ND (^ <4%) | ND (^ <4%) | + (≥4%)
CNC1CCc2sc(C)cc2C1 (centres unmarked) [Compound 197, N, 2-dimethyl-4,5,6,7-tetrahydrobenzothiophen-5-amine hydrochloride] | 3 mg/kg | ND (^ <4%) | ND (^ <4%) | ND (^ <4%) | ND (^ <4%) | ND (^ <4%) | ND (^ <4%) | ND (^ <4%) | ND (^ <4%) | ND (^ <4%) | ND (^ <4%) | +++ (≥49%)
Cc1scc2c1CCC(C)(N)C2 (centres unmarked) [Compound 200, 1,5-dimethyl-6,7-dihydro-4H-2-benzothiophen-5-amine hydrochloride] | 3 mg/kg | ND (^ <4%) | ND (^ <4%) | ++ (≥24%) | ND (^ <4%) | ND (^ <4%) | ND (^ <4%) | + (≥4%) | ND (^ <4%) | ++ (≥24%) | ND (^ <4%) | ND (^ <4%)
CNC1CCc2scc(C3CC3)c2C1 (centres unmarked) [Compound 201, 3-cyclopropyl-N-methyl-4,5,6,7-tetrahydrobenzothiophen-5-amine hydrochloride] | 3 mg/kg | ND (^ <4%) | ND (^ <4%) | ND (^ <4%) | ND (^ <4%) | + (≥4%) | ND (^ <4%) | ND (^ <4%) | ND (^ <4%) | ND (^ <4%) | ND (^ <4%) | ++ (≥24%)
CNC1COc2c(sc(C)c2C)C1 (centres unmarked) [Compound 202, N, 2,3-trimethyl-6,7-dihydro-5H-thieno[3,2-b]pyran-6-amine hydrochloride] | 3 mg/kg | + (≥4%) | ND (^ <4%) | ND (^ <4%) | ++ (≥24%) | ++ (≥24%) | ND (^ <4%) | ND (^ <4%) | ND (^ <4%) | ND (^ <4%) | ND (^ <4%) | ND (^ <4%)
Cc1sc(F)c2c1CC(N)CC2 (centres unmarked) [Compound 203, 1-fluoro-3-methyl-4,5,6,7-tetrahydro-2-benzothiophen-5-amine hydrochloride] | 3 mg/kg | ND (^ <4%) | ND (^ <4%) | ND (^ <4%) | ND (^ <4%) | ND (^ <4%) | ND (^ <4%) | ND (^ <4%) | ND (^ <4%) | ND (^ <4%) | ND (^ <4%) | +++ (≥49%)
N#Cc1scc2c1CC(N)CC2 (centres unmarked) [Compound 204, 6-amino-4,5,6,7-tetrahydro-2-benzothiophene-1-carbonitrile hydrochloride] | 3 mg/kg | ND (^ <4%) | ND (^ <4%) | ND (^ <4%) | ++++ (≥74%) | ND (^ <4%) | ND (^ <4%) | ND (^ <4%) | ND (^ <4%) | ND (^ <4%) | ND (^ <4%) | ND (^ <4%)
NC1CCc2scc(C3CC3)c2C1 (centres unmarked) [Compound 205, 3-cyclopropyl-4,5,6,7-tetrahydrobenzothiophen-5-amine hydrochloride] | > 3 mg/kg | ND (^ <4%) | ND (^ <4%) | ND (^ <4%) | ND (^ <4%) | ND (^ <4%) | ND (^ <4%) | ND (^ <4%) | ND (^ <4%) | ND (^ <4%) | ND (^ <4%) | ++ (≥24%)
